Source: PubChem BioAssay (NCI)
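Test compounds were applied to cells in 96-well plates for 48 hours at 5 doses. At the GI50, growth is halved. At the TGI there is no net growth.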

How the values were obtained:
Experiment in all cases: DTP human tumour cell line panel, 48 h
HCC-2998 colon = system: HCC-2998 colon
NCI-H23 lung = system: NCI-H23 lung
NCI/ADR-RES ovarian = system: NCI/ADR-RES ovarian
UACC-62 melanoma = system: UACC-62 melanoma
SR leukemia = system: SR leukemia
NCI-H226 lung = system: NCI-H226 lung
NCI-H460 lung = system: NCI-H460 lung
MDA-MB-435 = system: MDA-MB-435
SK-MEL-28 melanoma = system: SK-MEL-28 melanoma
SK-OV-3 ovarian = system: SK-OV-3 ovarian
MCF7 breast = system: MCF7 breast
DU-145 prostate = system: DU-145 prostate
OVCAR-4 ovarian = system: OVCAR-4 ovarian
NCI-H522 lung = system: NCI-H522 lung
SF-268 CNS = system: SF-268 CNS
HT29 colon = system: HT29 colon
UACC-257 melanoma = system: UACC-257 melanoma
CCRF-CEM leukemia = system: CCRF-CEM leukemia
SN12C renal = system: SN12C renal
SK-MEL-5 melanoma = system: SK-MEL-5 melanoma
A498 renal = system: A498 renal
U251 CNS = system: U251 CNS
SNB-75 CNS = system: SNB-75 CNS
SF-295 CNS = system: SF-295 CNS
A549 NSCLC = system: A549 NSCLC
SW-620 colon = system: SW-620 colon
UO-31 renal = system: UO-31 renal
HOP-62 NSCLC = system: HOP-62 NSCLC
KM12 colon = system: KM12 colon
HCT-116 colon = system: HCT-116 colon
EKVX NSCLC = system: EKVX NSCLC
T-47D breast = system: T-47D breast
K-562 leukemia = system: K-562 leukemia
HOP-92 NSCLC = system: HOP-92 NSCLC
ACHN renal = system: ACHN renal
MALME-3M melanoma = system: MALME-3M melanoma
MDA-MB-231 breast = system: MDA-MB-231 breast
TK-10 renal = system: TK-10 renal
HS 578T breast = system: HS 578T breast
IGROV1 ovarian = system: IGROV1 ovarian
LOX IMVI melanoma = system: LOX IMVI melanoma
OVCAR-5 ovarian = system: OVCAR-5 ovarian
MOLT-4 leukemia = system: MOLT-4 leukemia
PC-3 prostate = system: PC-3 prostate
M14 melanoma = system: M14 melanoma
COLO 205 colon = system: COLO 205 colon
CAKI-1 renal = system: CAKI-1 renal
BT-549 breast = system: BT-549 breast
RPMI-8226 leukemia = system: RPMI-8226 leukemia
RXF 393 renal = system: RXF 393 renal
OVCAR-8 ovarian = system: OVCAR-8 ovarian
SF-539 CNS = system: SF-539 CNS
HCT-15 colon = system: HCT-15 colon
SNB-19 CNS = system: SNB-19 CNS
HL-60(TB) leukemia = system: HL-60(TB) leukemia

CN(C)c1ccc(-c2cc(-c3c[nH]c4ccccc34)nc(N)c2C#N)cc1
GI50 (HCC-2998 colon): 2.15 µM | TGI (HCC-2998 colon): 10.5 µM | GI50 (NCI-H23 lung): 3.13 µM | TGI (NCI-H23 lung): 15.7 µM | GI50 (NCI/ADR-RES ovarian): 1.82 µM | TGI (NCI/ADR-RES ovarian): > 100 µM | GI50 (UACC-62 melanoma): 2.05 µM | TGI (UACC-62 melanoma): 7.27 µM | GI50 (SR leukemia): 0.419 µM | TGI (SR leukemia): 4.21 µM | GI50 (NCI-H226 lung): 4.23 µM | TGI (NCI-H226 lung): 27 µM | GI50 (NCI-H460 lung): 1.06 µM | TGI (NCI-H460 lung): 3.5 µM | GI50 (MDA-MB-435): 0.466 µM | TGI (MDA-MB-435): 10.1 µM | GI50 (SK-MEL-28 melanoma): 1.78 µM | TGI (SK-MEL-28 melanoma): 4.6 µM | GI50 (SK-OV-3 ovarian): 2.05 µM | TGI (SK-OV-3 ovarian): 4.88 µM | GI50 (MCF7 breast): 1.51 µM | TGI (MCF7 breast): 10.4 µM | GI50 (DU-145 prostate): 3.45 µM | TGI (DU-145 prostate): 21 µM | GI50 (OVCAR-4 ovarian): 4.78 µM | TGI (OVCAR-4 ovarian): 31.6 µM | GI50 (NCI-H522 lung): 0.446 µM | TGI (NCI-H522 lung): 2.16 µM | GI50 (SF-268 CNS): 3.89 µM | TGI (SF-268 CNS): 31.9 µM | GI50 (HT29 colon): 1.72 µM | TGI (HT29 colon): 6.43 µM | GI50 (UACC-257 melanoma): 1.89 µM | TGI (UACC-257 melanoma): 4.74 µM | GI50 (CCRF-CEM leukemia): 1.54 µM | TGI (CCRF-CEM leukemia): 36.4 µM | GI50 (SN12C renal): 2.87 µM | TGI (SN12C renal): 10.8 µM | GI50 (SK-MEL-5 melanoma): 1.84 µM | TGI (SK-MEL-5 melanoma): 3.6 µM | GI50 (A498 renal): 1.78 µM | TGI (A498 renal): 4.66 µM | GI50 (U251 CNS): 1.53 µM | TGI (U251 CNS): 4.21 µM | GI50 (SNB-75 CNS): 1.84 µM | TGI (SNB-75 CNS): 8.96 µM | GI50 (SF-295 CNS): 1.86 µM | TGI (SF-295 CNS): 4.14 µM | GI50 (A549 NSCLC): 1.92 µM | TGI (A549 NSCLC): 7.09 µM | GI50 (SW-620 colon): 2.16 µM | TGI (SW-620 colon): 11.3 µM | GI50 (UO-31 renal): 1.88 µM | TGI (UO-31 renal): 6.37 µM | GI50 (HOP-62 NSCLC): 1.83 µM | TGI (HOP-62 NSCLC): 6.96 µM | GI50 (KM12 colon): 1.85 µM | TGI (KM12 colon): 8.72 µM | GI50 (HCT-116 colon): 1.6 µM | TGI (HCT-116 colon): 4.45 µM | GI50 (EKVX NSCLC): 3.38 µM | TGI (EKVX NSCLC): 27.2 µM | GI50 (T-47D breast): 2.32 µM | TGI (T-47D breast): 7.83 µM | GI50 (K-562 leukemia): 0.653 µM | TGI (K-562 leukemia): > 100 µM | GI50 (HOP-92 NSCLC): 2.14 µM | TGI (HOP-92 NSCLC): 5.12 µM | GI50 (ACHN renal): 2.79 µM | TGI (ACHN renal): 23.4 µM | GI50 (MALME-3M melanoma): 1.72 µM | TGI (MALME-3M melanoma): 4.6 µM | GI50 (MDA-MB-231 breast): 2.16 µM | TGI (MDA-MB-231 breast): 10.6 µM | GI50 (TK-10 renal): 4.1 µM | TGI (TK-10 renal): 39.8 µM | GI50 (HS 578T breast): 2.08 µM | TGI (HS 578T breast): 6.71 µM | GI50 (IGROV1 ovarian): 2.35 µM | TGI (IGROV1 ovarian): 17.6 µM | GI50 (LOX IMVI melanoma): 1.56 µM | TGI (LOX IMVI melanoma): 3.58 µM | GI50 (OVCAR-5 ovarian): 3.17 µM | TGI (OVCAR-5 ovarian): 19.1 µM | GI50 (MOLT-4 leukemia): 1.89 µM | TGI (MOLT-4 leukemia): 14.1 µM | GI50 (PC-3 prostate): 2.79 µM | TGI (PC-3 prostate): 15.6 µM | GI50 (M14 melanoma): 1.7 µM | TGI (M14 melanoma): 4.35 µM | GI50 (COLO 205 colon): 2.11 µM | TGI (COLO 205 colon): 6.03 µM | GI50 (CAKI-1 renal): 1.67 µM | TGI (CAKI-1 renal): 7.21 µM | GI50 (BT-549 breast): 2.22 µM | TGI (BT-549 breast): 7.31 µM | GI50 (RPMI-8226 leukemia): 1.95 µM | TGI (RPMI-8226 leukemia): 4.89 µM | GI50 (RXF 393 renal): 1.3 µM | TGI (RXF 393 renal): 3.13 µM | GI50 (OVCAR-8 ovarian): 2.78 µM | TGI (OVCAR-8 ovarian): 10.7 µM | GI50 (SF-539 CNS): 1.33 µM | TGI (SF-539 CNS): 3.05 µM | GI50 (HCT-15 colon): 0.485 µM | TGI (HCT-15 colon): 10.4 µM | GI50 (SNB-19 CNS): 2.96 µM | TGI (SNB-19 CNS): > 100 µM | GI50 (HL-60(TB) leukemia): 1.79 µM | TGI (HL-60(TB) leukemia): 6.03 µM
